Laboratory results published in US20240165281A1, “DUAL MODE RADIOTRACER AND THERAPEUTICS” (Technische Universität München, priority 2021, published 2024).

What was measured:
[1] = tested on: LNCaP cells; assay: Internalization studies in LNCaP cells; type: cell-based; settings: 37° C., 60 min
Procedure: PSMA-positive LNCAP cells (300265; Cell Lines Service, Eppelheim, Germany) were cultivated in Dulbecco modified Eagle medium/Nutrition Mixture F-12 with Glutamax (1:1) (DMEM-F12, Biochrom, Berlin, Germany) supplemented with fetal bovine serum (10%, FBS Zellkultur, Berlin, Germany) and kept at 37° C. in a humidified CO2 atmosphere (5%). A mixture of trypsin and EDTA (0.05%, 0.02%) in PBS (Biochrom) was used in order to harvest cells. Cells were counted with a Neubauer hemocytometer (Paul Marienfeld, Lauda-Königshofen, Germany).
For internalization studies, LNCaP cells were harvested 24±2 hours before the experiment and seeded in poly-L-lysine coated 24-well plates (1.25×10^5 cells in 1 mL/well, Greiner Bio-One, Kremsmünster, Austria). After removal of the culture medium, the cells were washed once with 500 μL DMEM-F12 (5% BSA) and left to equilibrate for at least 15 min at 37° C. in […] DMEM-F12 (5% BSA). Each well was treated with either 25 μL of either DMEM-F12 (5% BSA, control) or 25 μL of a 100 μM PMPA (2-(Phosphonomethyl)-pentandioic acid, Tocris Bioscience, Bristol, UK) solution in PBS, for blockade. Next, 25 μL of the radioactive-labelled PSMA inhibitor (10.0 nM in DMEM-F12 (5% BSA)) was added and the cells were incubated at 37° C. for 60 min. The experiment was terminated by placing the 24-well plate on ice for 3 min and consecutive removal of the medium. Each well was carefully washed with 250 μL of ice-cold HBSS. Both fractions from the first steps, representing the amount of free radioligand, were combined. Removal of surface bound activity was accomplished by incubation of the cells with 250 μL of ice-cold PMPA (10 μM in PBS) solution for 5 min and rinsed again with another 250 μL of ice-cold PBS. The internalized activity was determined by incubation of the cells in 250 μL […] aqueous NaOH for at least 10 min. The obtained fractions were combined with those of the subsequent wash step with 250 μL 1 M aqueous NaOH. Each experiment (control and blockade) was performed in triplicate. Free, surface bound and internalized activity was quantified in a y-counter. All internalization studies were accompanied by external reference studies, using ([^125I]I-BA)KuE (c=0.2 nM), which were performed analogously. Data were corrected for non-specific binding and normalized to the specific-internalization observed for the radioiodinated reference compound.

[2] = molecular target: T1, Human Serum Albumin (HSA) (Homo sapiens, UniProt P02768); assay: Human serum albumin (HSA) binding by high performance affinity chromatography (HPAC); type: in vitro ADME; settings: Chiralpak HSA column
T1 construct: purchased Daicel H13H-2433
Procedure: Determination of Human Serum Albumin (HSA) Binding by High Performance Affinity Chromatography (HPAC)
HSA binding of the PSMA-addressing ligands was determined according to a previously published procedure via HPLC (Valko, K.; Nunhuck, S.; Bevan, C.; Abraham, M. H.; Reynolds, D. P. Journal of pharmaceutical sciences 2003, 92, 2236-2248). A Chiralpak HSA column (50×3 mm, 5 μm, H13H-2433, Daicel, Tokyo, Japan) was used at a constant flow rate of 0.5 mL/min at rt. Mobile phase A was a freshly prepared 50 mM aqueous solution of NH4OAc (pH 6.9) and mobile phase B was isopropanol (HPLC grade, VWR). The applied gradient for all experiments was 100% A (0 to 3 min), followed by 80% A (3 to 40 min). Prior to the experiment, the column was calibrated using nine reference substances with a HSA binding, known from literature, in the range of 13 to 99% (Valko, K.; Nunhuck, S.; Bevan, C.; Abraham, M. H.; Reynolds, D. P. Journal of pharmaceutical sciences 2003, 92, 2236-2248; Yamazaki, K.; Kanaoka, M. Journal of Pharmaceutical sciences 2004, 93, 1480-1494). All substances, including the examined PSMA ligands, were dissolved in a 1:1 mixture (v/v) of isopropanol and a 50 mM aqueous solution of NH4OAc (pH6.9) with a final concentration of 0.5 mg/mL. Non-linear regression was established with the OriginPro 2016G software (Northampton, United States) (FIG. 8).

[3] = tested on: LNCaP tumor-bearing male CB-17 SCID mice; assay: Biodistribution studies 24 h p.i.
Procedure: Approximately 3-7 MBq (0.1-0.2 nmol) of the radioactive-labelled PSMA inhibitors were injected into the tail vein of LNCaP tumor-bearing male CB-17 SCID mice and sacrificed after 24 h post injection. Selected organs were removed, weighted and measured in a γ-counter. Results are all decay corrected and given in % injected dose per gram of tissue (% iD/g). Tumor-to-organ ratios are calculated from animals' individual ratios and are given as mean±standard deviation.

[4] = mean, listed as [^177Lu]Lu-2C013

T1 sequence (P02768 25-609): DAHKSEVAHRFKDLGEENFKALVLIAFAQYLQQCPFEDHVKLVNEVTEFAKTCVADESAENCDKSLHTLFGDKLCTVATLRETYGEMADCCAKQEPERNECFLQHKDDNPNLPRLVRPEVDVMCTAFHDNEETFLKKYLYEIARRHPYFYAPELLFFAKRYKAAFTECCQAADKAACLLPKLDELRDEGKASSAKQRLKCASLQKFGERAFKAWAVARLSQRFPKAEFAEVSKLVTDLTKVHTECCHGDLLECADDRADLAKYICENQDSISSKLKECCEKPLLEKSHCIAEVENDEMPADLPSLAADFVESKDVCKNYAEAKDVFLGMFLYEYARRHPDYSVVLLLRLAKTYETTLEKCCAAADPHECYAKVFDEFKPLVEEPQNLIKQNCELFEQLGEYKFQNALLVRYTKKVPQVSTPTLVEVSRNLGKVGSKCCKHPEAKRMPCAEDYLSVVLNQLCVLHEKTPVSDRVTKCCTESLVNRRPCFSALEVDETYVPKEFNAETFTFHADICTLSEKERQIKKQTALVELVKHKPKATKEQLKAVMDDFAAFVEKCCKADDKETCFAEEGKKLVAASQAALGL

Question: What does the source list for `CC(C)(C)[Si](F)(c1ccc(C(=O)NC[C@@H](NC(=O)CN2CCN(CC(=O)O)CCN(CC(=O)O)CCN(CC(=O)O)CC2)C(=O)N[C@H](CO)C(=O)NCCC(=O)NCCC(=O)NCCC[C@@H](NC(=O)CC[C@H](NC(=O)N[C@@H](CCC(=O)O)C(=O)O)C(=O)O)C(=O)O)cc1)C(C)(C)C` [Compound 2C013]?
Answer: Internalization ([1]; normalized to ([125I]I-BA)KuE): 141 ± 8^ % IBA-KuE; Internalization ([1]; normalized to reference): 141 ± 8 % IBA; HSA (HPAC) [2]: 88.6%; Kidneys (24 h) ([3]; Table 1): 0.95 ± 0.42 % iD/g; Tumor (24 h) ([3]; Table 1): 7.59 ± 1.23 % iD/g; In vivo biodistribution (24 h p.i.) blood ([3]; Table 6): 0.0013 ± 0.0007 % iA/g; In vivo biodistribution (24 h p.i.) kidney ([3]; Table 6): 0.95 ± 0.42 % iA/g; In vivo biodistribution (24 h p.i.) tumor ([3]; Table 6): 7.59 ± 1.23 % iA/g; uptake in adrenals ([3]; mean): 0.0618 % iD/g; uptake in blood ([3]; mean): 0.0013 % iD/g; uptake in intestine ([3]; mean): 0.3354 % iD/g; uptake in kidney ([3]; mean): 0.9488 % iD/g; uptake in liver ([3]; mean): 0.2519 % iD/g; uptake in lung ([3]; mean): 0.0438 % iD/g; uptake in pancreas ([3]; mean): 0.0165 % iD/g; uptake in parotid gl. ([3]; mean): 0.0554 % iD/g; uptake in spleen ([3]; mean): 0.3891 % iD/g; uptake in stomach ([3]; mean): 0.0846 % iD/g; uptake in tumor ([3]; mean): 7.5897 % iD/g; uptake in bone ([3]; mean, listed as [^177Lu]2C013): 0.037 % iD/g; uptake in heart ([3]; mean, listed as [^177Lu]2C013): 0.019 % iD/g; uptake in muscle ([3]; mean, listed as [^177Lu]2C013): 0.004 % iD/g; uptake in submand. gl. ([3]; mean, listed as [^177Lu]2C013): 0.036 % iD/g; uptake in bone [3, 4]: 0.0370 % iD/g; uptake in heart [3, 4]: 0.0190 % iD/g; uptake in muscle [3, 4]: 0.0040 % iD/g; uptake in submand. gl. [3, 4]: 0.0360 % iD/g; tumor-to-organ ratio adrenals ([3]; n = 4, mean): 131.27; tumor-to-organ ratio blood ([3]; n = 4, mean): 6891.48; tumor-to-organ ratio bone ([3]; n = 4, mean): 208.29; tumor-to-organ ratio heart ([3]; n = 4, mean): 403.61; tumor-to-organ ratio intestine ([3]; n = 4, mean): 60.29; tumor-to-organ ratio kidney ([3]; n = 4, mean): 9.04; tumor-to-organ ratio liver ([3]; n = 4, mean): 31.82; tumor-to-organ ratio lung ([3]; n = 4, mean): 189.80; tumor-to-organ ratio muscle ([3]; n = 4, mean): 2075.70; tumor-to-organ ratio pancreas ([3]; n = 4, mean): 492.10; tumor-to-organ ratio parotid gl. ([3]; n = 4, mean): 140.11; tumor-to-organ ratio spleen ([3]; n = 4, mean): 21.03; tumor-to-organ ratio stomach ([3]; n = 4, mean): 145.92; tumor-to-organ ratio submand. gl. ([3]; n = 4, mean): 211.04; Activity accumulation adrenals ([3]; repeated dataset, n = 5, mean): 0.1327 % ID/g; Activity accumulation blood ([3]; repeated dataset, n = 5, mean): 0.0016 % ID/g; Activity accumulation bone ([3]; repeated dataset, n = 5, mean): 0.1331 % ID/g; Activity accumulation heart ([3]; repeated dataset, n = 5, mean): 0.023 % ID/g; Activity accumulation intestine ([3]; repeated dataset, n = 5, mean): 0.0615 % ID/g; Activity accumulation kidney ([3]; repeated dataset, n = 5, mean): 1.0833 % ID/g; Activity accumulation liver ([3]; repeated dataset, n = 5, mean): 0.3202 % ID/g; Activity accumulation lung ([3]; repeated dataset, n = 5, mean): 0.0548 % ID/g; Activity accumulation muscle ([3]; repeated dataset, n = 5, mean): 0.0056 % ID/g; Activity accumulation pancreas ([3]; repeated dataset, n = 5, mean): 0.0173 % ID/g; Activity accumulation parotid gl. ([3]; repeated dataset, n = 5, mean): 0.063 % ID/g; Activity accumulation spleen ([3]; repeated dataset, n = 5, mean): 0.4246 % ID/g; Activity accumulation stomach ([3]; repeated dataset, n = 5, mean): 0.0349 % ID/g; Activity accumulation submand. gl. ([3]; repeated dataset, n = 5, mean): 0.038 % ID/g; Activity accumulation tumor ([3]; repeated dataset, n = 5, mean): 10.1512 % ID/g; tumor-to-organ ratio adrenals ([3]; repeated dataset, n = 5, mean): 78.58; tumor-to-organ ratio blood ([3]; repeated dataset, n = 5, mean): 6950.64; tumor-to-organ ratio bone ([3]; repeated dataset, n = 5, mean): 73.24; tumor-to-organ ratio heart ([3]; repeated dataset, n = 5, mean): 475.05; tumor-to-organ ratio intestine ([3]; repeated dataset, n = 5, mean): 263.86; tumor-to-organ ratio kidney ([3]; repeated dataset, n = 5, mean): 9.48; tumor-to-organ ratio liver ([3]; repeated dataset, n = 5, mean): 31.51; tumor-to-organ ratio lung ([3]; repeated dataset, n = 5, mean): 184.32; tumor-to-organ ratio muscle ([3]; repeated dataset, n = 5, mean): 1867.35; tumor-to-organ ratio pancreas ([3]; repeated dataset, n = 5, mean): 587.5; tumor-to-organ ratio parotid gl. ([3]; repeated dataset, n = 5, mean): 172.33; tumor-to-organ ratio spleen ([3]; repeated dataset, n = 5, mean): 25.43; tumor-to-organ ratio stomach ([3]; repeated dataset, n = 5, mean): 286.18; tumor-to-organ ratio submand. gl. ([3]; repeated dataset, n = 5, mean): 270.92; T/K-ratio ([3]; tumor/kidney, Table 1): 9.04 ± 3.09
